Read-outs that look alike come from different tables or passages of the source.
Columns and labels:
[1] = Scanning electron microscopy (SEM) particle size; conditions: 1 mg/mL dispersion
[2] = Particle size by DLS before and after ultrasonication (Example 2); conditions: after ultrasonication

Compound | change of antioxidant activity (ABTS) with HPH treatment (after vs before HPH) | ABTS radical scavenging activity (concentration of 0.5 mg/mL) [%] | particle size by SEM (dry state) ([1]; HPH sample) [nm] | particle size by SEM (dry state) ([1]; NOHPH sample) [nm] | change of antioxidant activity (ABTS) with HPH treatment (0.01 mg/mL) | ABTS radical scavenging activity (concentration above 0.1 mg/mL) | colloidal dispersion stability when adjusting pH to 7 [2]
α-lactalbumin | increased | 20 | ~80 | ~40 |  |  | 
N[C@@H](Cc1c[nH]c2ccccc12)C(=O)O [Trp, tryptophan] |  |  |  |  | increased | around 100% | remained stable
